Melting point data for 90 compounds are collected here from a melting point compilation (Tetko et al.; mined from patent text by program, amines drawn as free bases though some values may be those of a salt).

Each structure is given as a SMILES string.

Consider `CCOC(=O)c1[nH]c(C)nc1C`, for which the melting point (commonly the temperature of the solid-liquid transition) was 165 to 166 °C.
As to `CN1C(=O)[C@H](NC(=O)CNc2ccccc2)N=C(c2ccccc2)c2ccccc21`, the melting point fell in the range of 245 to 246 °C.
As to `O=C1N=C(N2CCOCC2)SC1=Cc1cccc(-c2cc(F)c(O)c(C34CC5CC(CC(C5)C3)C4)c2)c1`, the melting point was 293 to 295 °C.
For `CC(C)(C)OC(=O)c1cnc(NC(=O)[C@H](CC2CCCC2)c2ccc(S(C)(=O)=O)c(Cl)c2)cn1` the value was 121 to 127 °C; for `CCC(CC)N(O)C(=O)Nc1cccc(Oc2ccccc2)c1`, 111 °C; for `COc1cc2c(cc1OC)CN(CCCCNC(=O)c1cc(I)ccc1OCCF)CC2`, 121 to 123 °C.
Compound `O=C(CN1c2nc(-c3ccncc3)cc(=O)n2CCC1c1ccccc1)c1ccc2ccccc2c1` (stereo not given) displayed a melting point of 226 to 228 °C.
`CN(C)S(=O)(=O)c1cc2c(c(Cl)c1Cl)OC(C(=O)OCC(=O)O)C2` (stereo not given) gave a melting point of 149 to 150 °C.
For `COC(=O)c1c(C(F)F)nc(C(F)(F)F)c(C(O)c2cccs2)c1CC(C)C` (stereo not given) the value was 78 to 88 °C; for `COc1cc(N)c(Cl)cc1C(=O)NC1CCN(CCCC(=O)N2C(C)CCCC2C)CC1OC` (stereo not given), 202 °C.
`CC(C(=O)O)c1ccc2c(c1)C(=O)Cc1ccccc1C2` (stereo not given) came in with a melting point of 134 to 136 °C.
The figure for `COc1cc(Nc2nccc(-c3sc(NCCc4ccccc4)nc3C)n2)cc(OC)c1` is 201 to 202 °C; for `COCCNC(=O)c1cccc(-c2ccc3c(c2)N(c2ccc(Cl)cc2Cl)CC3)c1` it is 119 to 120 °C.
In the case of `COc1ccc(CN(C(=O)C2CCCc3ccc(OC)cc32)c2ccc(OC)cc2)cc1` (stereo not given), the melting point is 89 to 90 °C.
For `O=C1CCC(=O)N1Nc1c(Cl)cc(Cl)cc1Cl` the value was 114 to 115 °C; for `CCCCOc1ccc(C(=O)NCCCCCCCNC(=O)c2ccc(OCCCC)cc2)cc1`, 151 to 152 °C.
In turn, `CN(C)C(=O)Sc1ccc2ncc([N+](=O)[O-])c(-c3ccccc3)c2c1` yielded a melting point of 171 to 173 °C.
Turning to `Cc1ccc(S(=O)(=O)C2CCCN(S(=O)(=O)c3ccc(C)cc3)C2)cc1` (stereo not given), the melting point was in the range of 124 to 142 °C.
In the case of `COC(=O)Cc1ccccc1S(=O)(=O)NC(=O)Nc1nc(Cl)cc(Cl)n1`, the melting point was in the range of 115 to 118 °C.
Turning to `CN(CCC1CCN(c2noc3cc(F)ccc23)CC1)C(=O)c1noc2ccccc12`, the melting point was 94 to 97 °C.
Take `Nc1ccc(C(=O)c2ccncc2)cc1N`: the melting point lay in the range of 210 to 214 °C.
`COc1ccc(CNC2SC(=O)NC2=O)cc1` (stereo not given) gave a melting point of 140 to 142 °C.
The compound `CCCn1c(=O)c2c(nc(C=Cc3cc(C)c(C)cc3S(=O)(=O)O)n2C)n(CCC)c1=O` registered a melting point of more than 280 °C.
For `CCOc1nc(NCc2ccco2)nc(Nc2ccc(O)cc2)n1` the value was 45 °C.
The compound `O=Cc1cccc2cncn12` registered a melting point of 138 to 140 °C.
For `COC(C)COC(=O)Nc1ccc(C2=NNC(=O)CC2C)cc1` (stereo not given) the value was 173 to 175 °C; for `O=c1[nH]c2ccc(Cl)cc2c2nc(-c3ccc(O)cc3)nn12`, more than 350 °C.
The figure for `COC(=O)Nc1ccc(Br)cc1I` is 129 to 130 °C; for `CC(=O)SCCC(=O)NC(Cc1cn(C=O)c2ccccc12)C(=O)O` (racemic) it is 130 to 133 °C; for `O=C1C=CC2=C(C1CC1CC1)n1ccc3c1=C(CCC=3)c1nncn12` (stereo not given) it is 99 °C.
On to `Cc1nn(-c2cc3nc(S)sc3cc2F)c(=O)n1C(F)F`, for which the melting point was in the range of 248 to 250 °C.
The figure for `FC(F)(F)c1ccc2nc(N3CCN(c4c(Cl)cccc4Cl)CC3)[nH]c2c1` is 263 to 265 °C; for `COc1ccc(-c2nsc3ccc([N+](=O)[O-])cc23)cc1` it is 207 °C; for `CC(C)(CCCOc1ccc(CCC(=O)c2ccc(-c3ccc(C(F)(F)F)cc3)s2)c(Cl)c1Cl)C(=O)O` it is 167 to 169 °C.
The compound `CCOC(=O)C1=C(C)NC(C)=C(C(=O)OCC)C1c1ccccc1/C=C/c1ccc(OC)cc1` returned a melting point of 179 to 181 °C.
For `COc1nc(C)cnc1NS(=O)(=O)c1cccnc1-c1ccc(OC(C)C(=O)O)cc1` (stereo not given), the melting point was 149 to 151 °C.
In turn, `Cc1c(CC2CCc3c(c4ccccc4n3C)C2=O)ncn1S(=O)(=O)N(C)C` (stereo not given) returned a melting point of 122 to 124 °C.
In turn, `Cc1nn(CC(F)F)c(-c2ccc(F)cc2)c1-c1ccc2c(c1)NC(=O)CO2` gave a melting point of 168 °C.
The figure for `O=C(Nc1cc(-c2c(-c3ccc(F)cc3)nc3cccnn23)ccn1)c1ccncc1` is 226 to 227 °C.
In turn, `Cc1ccc(C=C2C(=O)N(c3cc(F)ccc3F)C(=O)N2C)cc1` showed a melting point of 136 to 140 °C.
For `COc1ccc(C(=O)CC(C#N)c2ccc3c(c2)OCO3)cc1OC` (stereo not given) the value was 159 to 161 °C; for `CCCCCCCCCCCCCCOc1ccc(CC(=O)O)cc1Cl`, 68 to 69 °C.
Regarding `NC(=O)[C@H]1CCc2[nH]c3ccc(F)cc3c2C1`, the melting point was in the range of 170 to 172 °C.
Turning to `C=Cn1cc(C(=O)O)c(=O)c2cc(F)c(N3CCC4CCC(C3)N4C)cc21` (stereo not given), the melting point is 214 to 215 °C.
`Cc1cc(CCCCCS(=O)c2ccc(C3=NCCO3)cc2)on1` (stereo not given) displayed a melting point of 110 to 111 °C.
For `CCCCCOc1ccc(C#CC2(O)CN3CCC2CC3)cc1` (stereo not given) the value was 153 to 154 °C; for `COC(=O)c1nsc2ccc(-n3c(=O)cc(C(F)(F)F)n(C)c3=O)cc12`, 153 to 156 °C.
`CC(C)C[C@@H](C=NNC(N)=O)NC(=O)[C@H](Cc1c[nH]cn1)NC(=O)C(CCCCc1ccccc1)Cc1cccc2ccccc12` (stereo not given in full): the melting point fell in the range of 108 to 114 °C.
Regarding `CC(C)c1ccc(S(=O)(=O)c2ccccc2)c(C(C)C)c1`, the melting point was in the range of 105 to 107 °C.
For `COC1=NS(=O)N=C1OC`, the melting point is 137 to 139 °C.
The figure for `N#CCCCCn1nc(C(N)=O)c2ccccc21` is 182 to 185 °C; for `CCOC(=O)c1ccc(CCN2CC=C(c3c[nH]c(-c4ccc(F)cc4)c3-c3ccncc3)CC2)cc1` it is 217 to 218 °C; for `CCOC(=O)C=Cc1ccc(N(CCOC)C(=O)c2ccncc2)cc1` it is 98.4 to 102 °C.
`CC(=O)N1CCC2(CC1)Nc1cc(C)ccc1-n1cccc12` gave a melting point of 212 to 213 °C.
For `CCOCn1c(Oc2cc(C)cc(C)c2)c(CC)c(=O)[nH]c1=O` the value was 139 to 140 °C; for `CCOCC1(O)CCN(c2ccc(N3C[C@H](CNC(C)=O)OC3=O)cc2F)CC1`, 76 to 78 °C; for `CCCCc1ncc(CCN(C)C(Cc2ccccc2)C(=O)O)n1Cc1ccccc1Cl` (stereo not given), 59 to 61 °C.
`CC(C)c1ccc2nc3ccc(C(=O)O)cc3c(=O)n2c1` gave a melting point of 312 to 316 °C.
The figure for `OC(CC1CCNCC1)c1cc(-c2ccccc2)nc2ccccc12` (stereo not given) is 147 °C.
The compound `Cc1ccc(CCCc2c(C(C)C)nc(C(C)C)c(CO)c2-c2ccc(F)cc2)cc1` yielded a melting point of 79 to 80 °C.
For `CCc1cc(CC)c(-c2c(O)c(C)nn(C)c2=O)c(CC)c1Cl` the value was 225 to 226 °C; for `COc1ccc(Nc2ncnc3cc(Cl)ccc23)cc1`, 177 to 179 °C.
Compound `O=C1C(=O)c2ccccc2C2=C1SCC(CN1CCC3(CC1)OCCO3)O2` (stereo not given) returned a melting point of 202 to 204 °C.
With `COc1ccccc1NC(C)C(=O)O` (stereo not given), the melting point is 205 to 208 °C.
For `COc1cc2c(Nc3ccc(Sc4nccn4C)c(Cl)c3)c(C#N)cnc2cc1N1CCN(C2CCN(C)CC2)CC1` the value was 220 to 226 °C; for `COc1ccc(NC(=S)NCC(OC)OC)cc1`, 215 to 217 °C.
For `O=C(Nc1c[nH]nc1C(=O)NCCCOc1ccccc1)c1ccccn1` the value was 182 to 184 °C; for `COc1ccc2c(c1)Sc1c(cc(OC)c(O)c1Br)N2`, 185 °C; for `CCCCSc1cc(C(=O)O)cc(S(N)(=O)=O)c1-c1ccccc1`, 75 to 77 °C.
In turn, `CCOC(=O)CC(=O)Nc1ccc(NC(=O)CC(=O)OCC)c([N+](=O)[O-])c1` had a melting point of 96 to 97 °C.
In the case of `CCCCCCCCCCCCc1nnn(C(CCCCCCCCCCCC)C(=O)O)n1` (stereo not given), the melting point lay within 57 to 59 °C.
`O=C(O)c1cn(C2CC2)c2cc(N3CCC(c4ccncc4)C3)c(F)cc2c1=O` (stereo not given) returned a melting point of 260 to 261 °C.
The figure for `CC(C)(C)OC(=O)N[C@@H](C(=O)O)C1(C)CCCCC1` is 127 to 130 °C.
With `CCOc1c(OC)cc(C(=O)NN=C2CCCC2=Cc2ccccc2)cc1OC`, the melting point lay within 239 to 240 °C.
The figure for `COC(=O)c1cc2[nH]nc(N)c2s1` is 218 to 220 °C; for `Cc1cc(C#N)cc(C(=O)Nc2ccc(Cl)cn2)n1` it is 234 °C; for `CC(C)(CF)C(=O)C(Oc1cccc(F)n1)n1cncn1` (stereo not given) it is 116 °C.
For `CC(C)Sc1sc(-c2nnn[nH]2)c2c1C(=O)CC(C)(C)C2` the value was 228 to 230 °C; for `CC(=O)OC1CSC(Oc2ccccc2-c2c(C)noc2C)C(OC(C)=O)C1OC(C)=O` (stereo not given), 136 to 138 °C.
The figure for `CSc1cc(OCCC[Si](C)(C)C)c(Cl)cc1[N+](=O)[O-]` is 51 to 53 °C; for `N#Cc1cc2cc(Br)ccc2[nH]c1=O` it is 308 to 311 °C; for `CCNc1cccc2c1OC1(CC1)C2=O` it is 80.6 °C.
Consider `Cc1ccc(Cc2cnc(NCCCNc3cccc(C)n3)[nH]c2=O)cn1`, for which the melting point lay in the range of 113 to 120 °C.
The figure for `O=C(O)CCCCCCCCCCCCCCCCCCCCC(=O)ON1C(=O)CCC1=O` is 122 to 124 °C.
For `O=C1c2ccccc2OCN1CCCl` the value was 45 °C.
For `O=c1[nH]c2cc(Cl)cc(Cl)c2c(=O)n1Cc1cccc2ccccc12` the value was 274 to 276 °C; for `CCOC(=O)C1=Cc2cc(Br)ccc2NCC1`, 120 to 121 °C.
In turn, `C[C@H]1[C@@H](O)C(F)(F)C(=O)N1c1ccc(C#N)c(C(F)(F)F)c1` had a melting point of 128 to 131 °C.
For `CC1(C)CCN(C(=O)NCc2ccccc2)c2cc(C#N)ccc21` the value was 114 to 115 °C; for `CC(=O)CC(=O)C=Cc1ccc2cc[nH]c2c1`, 138 to 142 °C.
